Test results taken from patent US12139520B2 (priority 2020, dated 2024).
Numbered stars: 1 amine (or outer) side, 2 acyl side, 3 side chain; on linkers, the order of the positions; unused ones are H or OH. Bridge positions count the residues as written; N and C are the ends. Square brackets hold non-standard residues; d marks the D form. Peptide text beside a SMILES is read from it. * marks the point of attachment. C20 diacid = O=C(O)CCCCCCCCCCCCCCCCCCC(=O)*; γGlu = O=C(O)[C@H](CCC(=O)[*:2])N[*:1]; Hyp = O=C(O)[C@@H]1C[C@@H](O)CN1

Target: T1, hAMY3 receptor (Homo sapiens, UniProt O60896+P30988)
T1 sequence (P30988 25-474): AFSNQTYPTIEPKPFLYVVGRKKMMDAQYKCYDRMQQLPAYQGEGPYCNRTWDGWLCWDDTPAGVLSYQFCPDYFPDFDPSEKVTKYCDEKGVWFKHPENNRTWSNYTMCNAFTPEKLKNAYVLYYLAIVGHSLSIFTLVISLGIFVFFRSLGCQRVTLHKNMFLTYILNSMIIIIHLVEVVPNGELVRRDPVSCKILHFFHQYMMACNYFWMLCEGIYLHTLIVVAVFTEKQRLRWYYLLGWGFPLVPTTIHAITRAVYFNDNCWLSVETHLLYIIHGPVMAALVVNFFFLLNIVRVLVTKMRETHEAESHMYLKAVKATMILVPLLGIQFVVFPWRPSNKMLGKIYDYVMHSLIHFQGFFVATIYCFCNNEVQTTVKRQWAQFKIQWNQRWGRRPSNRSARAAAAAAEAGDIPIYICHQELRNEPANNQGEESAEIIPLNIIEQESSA
T1 sequence (O60896 24-148 partner): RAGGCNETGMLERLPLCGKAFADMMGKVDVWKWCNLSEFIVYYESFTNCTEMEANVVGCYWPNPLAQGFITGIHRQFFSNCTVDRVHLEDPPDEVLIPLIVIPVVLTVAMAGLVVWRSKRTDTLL
Test: cAMP assay for in vitro receptor activation, hAMY3-R
Type: cell-based
Conditions: cAMP assay, hAMY3 receptor; read-out: hAMY3R EC50
In short: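 Read-out is TR-FRET cAMP signal, recorded one hour after reagent addition, following 30 min room-temperature stimulation of stable hAMY3 cells with graded compound doses in casein/IBMX (0.5 mM) buffer.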

Row | EC50 [nM] | SMILES
1 | 0.017 | CC[C@H](C)[C@H](NC(=O)[C@H](CCC(N)=O)NC(=O)[C@H](Cc1c[nH]cn1)NC(=O)[C@H](C)NC(=O)[C@H](CC(C)C)NC(=O)[C@H](CCCNC(=N)N)NC(=O)[C@H](CCC(N)=O)NC(=O)[C@@H](NC(=O)[C@@H](NC(=O)[C@@H]1CSSC[C@H](NC(=O)[C@H](CCCCN)NC(=O)CC[C@H](NC(=O)CCCCCCCCCCCCCCCCCCC(=O)O)C(=O)O)C(=O)N[C@@H](CC(N)=O)C(=O)N[C@@H](Cc2ccccc2)C(=O)N[C@@H](C)C(=O)N[C@@H]([C@@H](C)O)C(=O)N1)[C@@H](C)O)C(C)C)C(=O)N[C@@H](Cc1ccc(O)cc1)C(=O)N[C@@H](CCC(N)=O)C(=O)N[C@@H](Cc1ccccc1)C(=O)N[C@H](C(=O)N[C@@H](CC(=O)O)C(=O)N[C@@H](CCCCN)C(=O)N[C@@H](CC(=O)O)C(=O)N[C@@H](CCCCN)C(=O)N[C@@H](CC(=O)O)C(=O)N[C@@H](CC(N)=O)C(=O)N[C@H](C(=O)N[C@@H](C)C(=O)N1CCC[C@H]1C(=O)N[C@@H](CCCNC(=N)N)C(=O)N[C@H](C(=O)N[C@@H](CCC(=O)O)C(=O)N[C@H](C(=O)NCC(=O)N[C@@H](CO)C(=O)N[C@@H](CC(N)=O)C(=O)NCC(=O)N[C@@H](Cc1ccc(O)cc1)C(N)=O)C(C)C)[C@@H](C)O)C(C)C)[C@@H](C)O [compound 370] ({C20 diacid-γGlu}-KCNFATCTVQRLAHQIYQFTDKDKDNVAPRTEVGSNGY-NH2; disulfide 2-7)
2 | 0.024 | CC(C)C[C@H](NC(=O)[C@H](CCCNC(=N)N)NC(=O)[C@H](CCC(N)=O)NC(=O)[C@@H](NC(=O)[C@@H](NC(=O)[C@@H]1CSSC[C@H](NC(=O)CN)C(=O)N[C@@H](CCCNC(=N)N)C(=O)N[C@@H](Cc2ccccc2)C(=O)N[C@@H](C)C(=O)N[C@@H]([C@@H](C)O)C(=O)N1)[C@@H](C)O)C(C)C)C(=O)N[C@@H](C)C(=O)N[C@@H](Cc1c[nH]cn1)C(=O)N[C@@H](Cc1ccccc1)C(=O)N[C@@H](CC(C)C)C(=O)N[C@@H](Cc1ccc(O)cc1)C(=O)N[C@@H](CCC(N)=O)C(=O)N[C@@H](Cc1ccccc1)C(=O)N[C@H](C(=O)N[C@@H](CC(=O)O)C(=O)N[C@@H](CCCCN)C(=O)N[C@@H](CC(=O)O)C(=O)N[C@@H](CCCCN)C(=O)N[C@@H](CC(=O)O)C(=O)N[C@@H](CC(N)=O)C(=O)N[C@H](C(=O)N[C@@H](C)C(=O)N1CCC[C@H]1C(=O)N[C@@H](CCCNC(=N)N)C(=O)N[C@H](C(=O)N[C@@H](CCCCN)C(=O)N[C@H](C(=O)NCC(=O)N1CCC[C@H]1C(=O)N[C@@H](CCC(N)=O)C(=O)NCC(=O)N[C@@H](Cc1ccc(O)cc1)C(N)=O)C(C)C)[C@@H](C)O)C(C)C)[C@@H](C)O [compound 377] (H-GCRFATCTVQRLAHFLYQFTDKDKDNVAPRTKVGPQGY-NH2; disulfide 2-7; N-terminus assumed)
3 | 0.012 | CC[C@H](C)[C@H](NC(=O)[C@H](CCCCN)NC(=O)[C@@H](NC(=O)[C@H](CCCNC(=N)N)NC(=O)[C@@H]1CCCN1C(=O)[C@H](C)NC(=O)[C@@H](NC(=O)[C@H](CC(N)=O)NC(=O)[C@H](CC(=O)O)NC(=O)[C@H](CCCCN)NC(=O)[C@H](CC(=O)O)NC(=O)[C@H](CCCCN)NC(=O)[C@H](CC(=O)O)NC(=O)[C@@H](NC(=O)[C@H](Cc1ccccc1)NC(=O)[C@H](CCC(N)=O)NC(=O)[C@H](Cc1ccc(O)cc1)NC(=O)[C@H](CC(C)C)NC(=O)[C@H](Cc1ccccc1)NC(=O)[C@H](Cc1c[nH]cn1)NC(=O)[C@H](C)NC(=O)[C@H](CC(C)C)NC(=O)[C@H](CCCNC(=N)N)NC(=O)[C@H](CCC(N)=O)NC(=O)[C@@H](NC(=O)[C@@H](NC(=O)[C@@H]1CSSC[C@H](NC(=O)CN)C(=O)N[C@@H](CCCNC(=N)N)C(=O)N[C@@H](Cc2ccccc2)C(=O)NCC(=O)N[C@@H]([C@@H](C)O)C(=O)N1)[C@@H](C)O)C(C)C)[C@@H](C)O)C(C)C)[C@@H](C)O)C(=O)NCC(=O)N1CCC[C@H]1C(=O)N[C@@H](CCC(N)=O)C(=O)NCC(=O)N[C@@H](Cc1ccc(O)cc1)C(N)=O [compound 365] (H-GCRFGTCTVQRLAHFLYQFTDKDKDNVAPRTKIGPQGY-NH2; disulfide 2-7)

The remaining lines, values behind:

Row | SMILES | EC50 [nM]
4 | CC[C@H](C)[C@H](NC(=O)[C@H](CCC(N)=O)NC(=O)[C@H](Cc1ccc(O)cc1)NC(=O)[C@H](C)NC(=O)[C@H](CC(C)C)NC(=O)[C@H](CCCNC(=N)N)NC(=O)[C@H](CCC(N)=O)NC(=O)[C@@H](NC(=O)[C@@H](NC(=O)[C@@H]1CSSC[C@H](NC(=O)[C@H](CCCCN)NC(=O)CC[C@H](NC(=O)CCCCCCCCCCCCCCCCCCC(=O)O)C(=O)O)C(=O)N[C@@H](CC(N)=O)C(=O)N[C@@H]([C@@H](C)O)C(=O)N[C@@H](C)C(=O)N[C@@H]([C@@H](C)O)C(=O)N1)[C@@H](C)O)C(C)C)C(=O)N[C@@H](Cc1ccc(O)cc1)C(=O)N[C@@H](CCC(N)=O)C(=O)N[C@@H](Cc1ccccc1)C(=O)N[C@H](C(=O)N[C@@H](CC(=O)O)C(=O)N[C@@H](CCCCN)C(=O)N[C@@H](CC(=O)O)C(=O)N[C@@H](CCCCN)C(=O)N[C@@H](CC(=O)O)C(=O)N[C@@H](CC(N)=O)C(=O)N[C@H](C(=O)N[C@@H](C)C(=O)N1CCC[C@H]1C(=O)N1CCC[C@H]1C(=O)N[C@H](C(=O)N[C@@H](CC(N)=O)C(=O)N[C@H](C(=O)NCC(=O)N[C@@H](CO)C(=O)N[C@@H](CC(N)=O)C(=O)NCC(=O)N1C[C@H](O)C[C@H]1C(N)=O)C(C)C)[C@@H](C)O)C(C)C)[C@@H](C)O [compound 47] ({C20 diacid-γGlu}-KCNTATCTVQRLAYQIYQFTDKDKDNVAPPTNVGSNG[Hyp]-NH2; disulfide 2-7) | 0.011
5 | CC[C@H](C)[C@H](NC(=O)[C@H](CCC(N)=O)NC(=O)[C@H](Cc1c[nH]cn1)NC(=O)[C@H](C)NC(=O)[C@H](CC(C)C)NC(=O)[C@H](CCCNC(=N)N)NC(=O)[C@H](CCC(N)=O)NC(=O)[C@@H](NC(=O)[C@@H](NC(=O)[C@@H]1CSSC[C@H](NC(=O)[C@@H](N)CCCCN)C(=O)N[C@@H](CC(N)=O)C(=O)N[C@@H](Cc2ccccc2)C(=O)N[C@@H](C)C(=O)N[C@@H]([C@@H](C)O)C(=O)N1)[C@@H](C)O)C(C)C)C(=O)N[C@@H](Cc1ccc(O)cc1)C(=O)N[C@@H](CCC(N)=O)C(=O)N[C@@H](Cc1ccccc1)C(=O)N[C@H](C(=O)N[C@@H](CC(=O)O)C(=O)N[C@@H](CCCCN)C(=O)N[C@@H](CC(=O)O)C(=O)N[C@@H](CCCCN)C(=O)N[C@@H](CC(=O)O)C(=O)N[C@@H](CC(N)=O)C(=O)N[C@H](C(=O)N[C@@H](C)C(=O)N1CCC[C@H]1C(=O)N1CCC[C@H]1C(=O)N[C@H](C(=O)N[C@@H](CCC(=O)O)C(=O)N[C@H](C(=O)NCC(=O)N[C@@H](CO)C(=O)N[C@@H](CC(N)=O)C(=O)NCC(=O)N1C[C@H](O)C[C@H]1C(N)=O)C(C)C)[C@@H](C)O)C(C)C)[C@@H](C)O [compound 10] (H-KCNFATCTVQRLAHQIYQFTDKDKDNVAPPTEVGSNG[Hyp]-NH2; disulfide 2-7; N-terminus assumed) | 0.007
6 | CC[C@H](C)[C@H](NC(=O)[C@H](CCC(N)=O)NC(=O)[C@H](Cc1c[nH]cn1)NC(=O)[C@H](C)NC(=O)[C@H](CC(C)C)NC(=O)[C@H](CCCNC(=N)N)NC(=O)[C@H](CCC(N)=O)NC(=O)[C@@H](NC(=O)[C@@H](NC(=O)[C@@H]1CSSC[C@H](NC(=O)[C@H](CCCCN)NC(=O)CC[C@H](NC(=O)CCCCCCCCCCCCCCCCCCC(=O)O)C(=O)O)C(=O)N[C@@H](CC(N)=O)C(=O)N[C@@H]([C@@H](C)O)C(=O)N[C@@H](C)C(=O)N[C@@H]([C@@H](C)O)C(=O)N1)[C@@H](C)O)C(C)C)C(=O)N[C@@H](Cc1ccc(O)cc1)C(=O)N[C@@H](CCC(N)=O)C(=O)N[C@@H](Cc1ccccc1)C(=O)N[C@@H](CO)C(=O)N[C@@H](CC(=O)O)C(=O)N[C@@H](CCCCN)C(=O)N[C@@H](CC(=O)O)C(=O)N[C@@H](CCCCN)C(=O)N[C@@H](CC(=O)O)C(=O)N[C@@H](CC(N)=O)C(=O)N[C@H](C(=O)N[C@@H](C)C(=O)N1CCC[C@H]1C(=O)N1CCC[C@H]1C(=O)N[C@H](C(=O)N[C@@H](CC(N)=O)C(=O)N[C@H](C(=O)NCC(=O)N[C@@H](CO)C(=O)N[C@@H](CC(N)=O)C(=O)NCC(=O)N1C[C@H](O)C[C@H]1C(N)=O)C(C)C)[C@@H](C)O)C(C)C [compound 57] ({C20 diacid-γGlu}-KCNTATCTVQRLAHQIYQFSDKDKDNVAPPTNVGSNG[Hyp]-NH2; disulfide 2-7) | 0.012
